Results as given in US8658568B2, “6-amino-2-substituted-5-vinylsilylpyrimidine-4-carboxylic acids and esters and 4-amino-6-substituted-3-vinylsilylpyridine-2-carboxylic acids and esters as herbicides” (Dow AgroSciences, LLC., priority 2011, dated 2014).

Legend:
[1] = test system: HELAN = sunflower (Helianthus annuus); test: Postemergence herbicidal activity, sunflower; format: in vivo; settings: post-emergence, 336 h, post-emergent, rate 140 g ai/ha, visual score after 14 days (0 no injury, 100 complete kill), read-out: % Growth Reduction HELAN
Protocol: (§1) Evaluation of Postemergence Herbicidal Activity
(§2) Seeds or nutlets of the desired test plant species were planted in Sun Gro MetroMix® 306 planting mixture, which typically has a pH of 6.0 to 6.8 and an organic matter content of about 30 percent, in plastic pots with a surface area of 64 square centimeters. When required to ensure good germination and healthy plants, a fungicide treatment and/or other chemical or physical treatment was applied. The plants were grown for 7-21 days in a greenhouse with an approximate 15 hour photoperiod which was maintained at about 23-29° C. during the day and 22-28° C. during the night. Nutrients and water were added on a regular basis and supplemental lighting was provided with overhead metal halide 1000-Watt lamps as necessary. The plants were employed for testing when they reached the first or second true leaf stage.
(§3) A weighed amount, determined by the highest rate to be tested, of each test compound was placed in a 25 mL glass vial and was dissolved in 4 mL of a 97:3 v/v (volume/volume) mixture of acetone and dimethyl sulfoxide (DMSO) to obtain concentrated stock solutions. […] The concentrated stock solutions obtained were diluted with 20 mL of an aqueous mixture containing acetone, water, isopropyl alcohol, DMSO, Atplus 411F crop oil concentrate, and Triton® X-155 surfactant in a 48.5:39:10:1.5:1.0:0.02 v/v ratio to obtain spray solutions containing the highest application rates. Additional application rates were obtained by serial dilution of 12 mL of the high rate solution into a solution containing 2 mL of 97:3 (v/v) mixture of acetone and dimethyl sulfoxide (DMSO) and 10 mL of an aqueous mixture containing acetone, water, isopropyl alcohol, DMSO, Atplus 411F crop oil concentrate, and Triton X-155 surfactant in a 48.5:39:10:1.5:1.0:0.02 (v/v) ratio to obtain 1/2 ×, 1/4 ×, 1/8× and 1/16× rates of the high rate. Compound requirements are based upon a 12 mL application volume at a rate of 187 L/ha. Formulated compounds were applied to the plant material with an overhead Mandel track sprayer equipped with a 8002E nozzles calibrated to deliver 187 L/ha over an application area of 0.503 square meters at a spray height of 18 inches (43 cm) above the average plant canopy height. Control plants were sprayed in the same manner with the solvent blank.
(§4) The treated plants and control plants were placed in a greenhouse as described above and watered by sub-irrigation to prevent wash-off of the test compounds. After 14 days, the condition of the test plants as compared with that of the untreated plants was determined visually and scored on a scale of 0 to 100 percent where 0 corresponds to no injury and 100 corresponds to complete kill
(§5) By applying the well-accepted probit analysis as described by J. Berkson in Journal of the […], 48, 565 (1953) and by D. Finney in “Probit Analysis” Cambridge University Press (1952), the above data can be used to calculate GR50 and GR80 values, which are defined as growth reduction factors that correspond to the effective dose of herbicide required to kill or control 50 percent or 80 percent, respectively, of a target plant.

[2] = test system: EPHHL = wild poinsettia (Euphorbia heterophylla); test: Postemergence herbicidal activity, wild poinsettia; format: in vivo; settings: post-emergence, 336 h, post-emergent, rate 140 g ai/ha, visual score after 14 days (0 no injury, 100 complete kill), read-out: % Growth Reduction EPHHL
Protocol: as §1, §2, §3, §4, §5

[3] = test system: CHEAL = lambsquarters (Chenopodium album); test: Postemergence herbicidal activity, lambsquarters; format: in vivo; settings: post-emergence, 336 h, post-emergent, rate 140 g ai/ha, visual score after 14 days (0 no injury, 100 complete kill), read-out: % Growth Reduction CHEAL
Protocol: as §1, §2, §3, §4, §5

[4] = test system: ECHCG = barnyardgrass (Echinochloa crus-galli); test: Postemergence herbicidal activity, barnyardgrass; format: in vivo; settings: post-emergence, 336 h, post-emergent, rate 140 g ai/ha, visual score after 14 days (0 no injury, 100 complete kill), read-out: % Growth Reduction ECHCG
Protocol: as §1, §2, §3, §4, §5

[5] = test system: AMARE = redroot pigweed (Amaranthus retroflexus); test: Postemergence herbicidal activity, redroot pigweed; format: in vivo; settings: post-emergence, 336 h, post-emergent, rate 140 g ai/ha, visual score after 14 days (0 no injury, 100 complete kill), read-out: % Growth Reduction AMARE
Protocol: as §1, §2, §3, §4, §5

[6] = test system: IPOHE = ivyleaf morningglory (Ipomoea hederacea); test: Postemergence herbicidal activity, ivyleaf morningglory; format: in vivo; settings: post-emergence, 336 h, post-emergent, rate 140 g ai/ha, visual score after 14 days (0 no injury, 100 complete kill), read-out: % Growth Reduction IPOHE
Protocol: as §1, §2, §3, §4, §5

[7] = test system: ABUTH = velvetleaf (Abutilon theophrasti); test: Postemergence herbicidal activity, velvetleaf; format: in vivo; settings: post-emergence, 336 h, post-emergent, rate 140 g ai/ha, visual score after 14 days (0 no injury, 100 complete kill), read-out: % Growth Reduction ABUTH
Protocol: as §1, §2, §3, §4, §5

SMILES	pest or weed control at 140 g/ha [1] [%]	pest or weed control at 140 g/ha [2] [%]	pest or weed control at 140 g/ha [3] [%]	pest or weed control at 140 g/ha [4] [%]	pest or weed control at 140 g/ha [5] [%]	melting point [°C]	pest or weed control at 140 g/ha [6] [%]	pest or weed control at 140 g/ha [7] [%]
COc1c(Cl)ccc(-c2nc(N)c(/C=C/[Si](C)(C)C)c(C(=O)O)n2)c1F [Compound 6, (E)-6-amino-2-(4-chloro-2-fluoro-3-methoxyphenyl)-5-(2-(trimethylsilyl)vinyl)pyrimidine-4-carboxylicacid]	100	100	100	100	100	108 to 110	95	100
COC(=O)c1nc(-c2ccc(Cl)cc2)c(F)c(N)c1/C=C/[Si](C)(C)C [Compound 12, (E)-Methyl 4-amino-6-(4-chlorophenyl)-5-fluoro-3-(2-(trimethylsilyl)vinyl)picolinate]	90	80	100	0	75	113 to 115	0	90
